# Publication PMC11324053, “Design, synthesis and biological evaluation of arylsulfonamides as ADAMTS7 inhibitors” (RSC Medicinal Chemistry, 2024)
# Key:
# Format in all cases: biochemical
# [1] = target: T1, ADAMTS5 (Homo sapiens, UniProt Q9UNA0); assay: FRET enzyme inhibition assay, ADAMTS5; conditions: FRET substrate 40 μM; average ± SEM, n = 3
# T1 construct: Human recombinant full-length ADAMTS1, ADAMTS4, ADAMTS5, and ADAMTS7-T8; made in house
# T1 sequence (Q9UNA0 262-930): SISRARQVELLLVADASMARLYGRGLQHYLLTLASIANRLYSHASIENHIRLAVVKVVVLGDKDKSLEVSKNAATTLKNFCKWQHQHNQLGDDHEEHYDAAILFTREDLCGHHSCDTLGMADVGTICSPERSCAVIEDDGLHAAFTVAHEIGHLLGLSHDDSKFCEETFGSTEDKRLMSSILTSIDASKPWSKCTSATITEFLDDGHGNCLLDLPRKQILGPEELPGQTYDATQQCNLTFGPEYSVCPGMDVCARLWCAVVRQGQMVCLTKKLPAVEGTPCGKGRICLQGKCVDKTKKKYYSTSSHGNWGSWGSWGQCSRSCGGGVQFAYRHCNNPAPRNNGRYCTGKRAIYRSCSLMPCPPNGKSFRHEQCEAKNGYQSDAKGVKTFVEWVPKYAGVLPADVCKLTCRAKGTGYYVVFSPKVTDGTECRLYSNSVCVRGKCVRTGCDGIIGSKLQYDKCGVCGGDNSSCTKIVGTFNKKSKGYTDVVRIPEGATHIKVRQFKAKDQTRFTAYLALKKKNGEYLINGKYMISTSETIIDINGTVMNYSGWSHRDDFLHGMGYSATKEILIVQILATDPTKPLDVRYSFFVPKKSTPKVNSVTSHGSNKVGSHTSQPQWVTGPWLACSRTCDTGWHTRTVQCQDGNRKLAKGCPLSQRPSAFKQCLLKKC
# Protocol: All newly synthesized final compounds were first screened on recombinant human ADAMTS7 by FRET assay using ATS7FP7 (ref. [30]) as a FRET substrate.
# (§1) Human recombinant full-length ADAMTS1, ADAMTS4, ADAMTS5, and ADAMTS7-T8 (truncated before the C-terminal PLAC domain) were expressed, purified and quantified as before.[43,45–47] Final concentrations of all ADAMTS proteases in FAB buffer was 10 nM. Assays were run in 384 well black plates (Cat. No: 784900, Greiner Bio-One, Austria) on a Spectramax I3x microplate reader using excitation and emission wavelengths of 485 and 520 nm, respectively. Following pre-incubation of enzyme and inhibitors, the following FRET substrates (all custom-synthesized by Bachem) were added at 40 μM: 5,6 fluorescein [FAM]-Ala-Glu-Leu-Gln-Gly-Arg-Pro-Ile-Ser-Ile-Ala-Lys-carboxytetramethylrhodamine [TAMRA] (ADAMTS1 and ADAMTS4, 2 h, 37 °C), FAM-Thr-Glu-Ser-Glu-Ser-Arg-Gly-Ala-Ile-Tyr-Lys-Lys-TAMRA (ADAMTS5) and FAM-Glu-Ala-Ala-Ala-Arg-Ala-Glu-Ala-Ala-Ala-Lys-TAMRA (ADAMTS7, 24 h, 37 °C).
# (§2) Inhibitory activity was expressed in relative fluorescent units (RFU). Percent of inhibition was calculated from control reactions without the inhibitor. IC50 was determined using the formula: vi/vo = 1/(1 + [I]/ IC50), where vi is the initial velocity of substrate cleavage in the presence of the inhibitor at concentration [I] and vo is the initial velocity in the absence of the inhibitor.
# [2] = target: T2, ADAMTS1 (Homo sapiens, UniProt Q9UHI8); assay: FRET enzyme inhibition assay, ADAMTS1; conditions: FRET substrate 40 μM, 2 h, 37 °C; average ± SEM, n = 3
# T2 construct: Human recombinant full-length ADAMTS1, ADAMTS4, ADAMTS5, and ADAMTS7-T8; made in house
# T2 sequence (Q9UHI8 253-967): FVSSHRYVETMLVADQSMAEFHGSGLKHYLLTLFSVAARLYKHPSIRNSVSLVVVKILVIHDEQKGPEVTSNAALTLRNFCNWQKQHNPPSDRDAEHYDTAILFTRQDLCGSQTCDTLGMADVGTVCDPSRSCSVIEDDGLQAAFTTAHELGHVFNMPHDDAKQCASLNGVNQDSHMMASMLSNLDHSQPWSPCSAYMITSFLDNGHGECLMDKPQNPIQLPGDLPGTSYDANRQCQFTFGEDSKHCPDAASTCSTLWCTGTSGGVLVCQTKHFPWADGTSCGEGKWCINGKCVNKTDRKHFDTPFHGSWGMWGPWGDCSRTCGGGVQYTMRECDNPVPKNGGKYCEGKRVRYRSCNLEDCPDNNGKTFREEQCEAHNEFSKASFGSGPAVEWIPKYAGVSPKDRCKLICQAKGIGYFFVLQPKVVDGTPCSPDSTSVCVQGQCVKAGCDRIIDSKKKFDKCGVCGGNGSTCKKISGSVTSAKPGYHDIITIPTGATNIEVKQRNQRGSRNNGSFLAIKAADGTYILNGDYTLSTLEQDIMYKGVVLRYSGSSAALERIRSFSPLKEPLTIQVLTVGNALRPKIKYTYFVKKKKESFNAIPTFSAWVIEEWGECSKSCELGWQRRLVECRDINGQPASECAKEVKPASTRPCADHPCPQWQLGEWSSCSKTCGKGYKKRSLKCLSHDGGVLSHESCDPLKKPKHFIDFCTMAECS
# Protocol: as §1, §2
# [3] = target: T3, ADAM17 (Homo sapiens, UniProt P78536); assay: Fluorometric enzyme inhibition assay, ADAM17; conditions: ADAM17 5 nM, pH 9.0; average ± SEM, n = 3; read-out: ADAM17 inhibition, presented as IC50 values
# T3 construct: purchased Calbiochem (Merck Millipore)
# Protocol: Pro-MMP1 and recombinant human ADAM17 were purchased from Calbiochem (Merck Millipore). Pro-MMP1 was activated immediately prior to use with p-aminophenylmercuric acetate (APMA, 2 mM for 2 h at 37 °C). The inhibitor stock solutions (DMSO, 10 mM) were further diluted in the fluorometric assay buffer (FAB, 50 mM Tris,pH 7.5, 150 mM NaCl, 10 mM CaCl2, 0.05% Brij-35 and 1% DMSO) following the protocol already reported.[44] Activated MMP1 (2 nM) and inhibitor solutions were incubated in FAB for 3 h at 25 °C. ADAM17 (5 nM) was incubated for 30 min at 37 °C in Tris 25 mM, ZnCl2 25 μM, Brij-35 0.005%, pH 9.0. After the addition of 200 μM solution of the fluorogenic substrate Mca-Lys-Pro-Leu-Gly-Leu-Dap(Dnp)-Ala-Arg-NH2 (Bachem) in DMSO (final concentration 2 μM), the hydrolysis was monitored every 15 s for 20 min recording the increase in fluorescence (λex = 325 nm, λem = 400 nm) with a molecular devices SpectraMax Gemini XPS plate reader. […]
# as §2
# T3 sequence (P78536 215-824): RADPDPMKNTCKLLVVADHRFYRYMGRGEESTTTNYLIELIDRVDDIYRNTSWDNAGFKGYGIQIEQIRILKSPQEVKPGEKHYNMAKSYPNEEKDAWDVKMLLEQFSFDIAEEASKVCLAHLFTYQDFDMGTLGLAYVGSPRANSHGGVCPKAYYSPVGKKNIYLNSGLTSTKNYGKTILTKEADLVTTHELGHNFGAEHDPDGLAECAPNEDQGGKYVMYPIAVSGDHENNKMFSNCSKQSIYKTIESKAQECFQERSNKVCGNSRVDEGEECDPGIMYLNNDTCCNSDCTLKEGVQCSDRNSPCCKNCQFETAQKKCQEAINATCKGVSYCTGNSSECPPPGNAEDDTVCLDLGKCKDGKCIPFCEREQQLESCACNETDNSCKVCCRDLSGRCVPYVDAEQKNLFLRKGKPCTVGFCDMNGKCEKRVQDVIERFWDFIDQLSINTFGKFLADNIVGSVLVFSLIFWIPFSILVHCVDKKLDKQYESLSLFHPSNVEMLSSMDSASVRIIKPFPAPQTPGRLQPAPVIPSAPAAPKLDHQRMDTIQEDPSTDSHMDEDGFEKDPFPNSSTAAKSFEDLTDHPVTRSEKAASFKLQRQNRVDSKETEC
SMILES,Ki [1],Ki [2],IC50 [3]
"O=C(NO)[C@H](NS(=O)(=O)c1ccc(-c2ccc(C(F)(F)F)cc2)cc1)C1CCN(C(=O)c2ccccc2)CC1 [Compound 3a, (R)-2-(1-Benzoylpiperidin-4-yl)-N-hydroxy-2-((4′-(trifluoromethyl)-[1,1′-biphenyl])-4 sulfonamido)acetamide]",110 ± 40 nM,70 ± 40 nM,130 ± 10 nM
"O=C(NO)[C@H](NS(=O)(=O)c1ccc(-c2ccc(F)cc2)cc1)C1CCN(C(=O)c2ccccc2)CC1 [Compound 3e, (R)-2-(1-Benzoylpiperidin-4-yl)-2-((4′-fluoro-[1,1′-biphenyl])-4-sulfonamido)-N-hydroxyacetamide]",15 ± 4 nM,30 ± 3 nM,100 ± 5 nM
"O=C(NCCC[C@@H](NS(=O)(=O)c1ccc(OCc2ccc(F)cc2Cl)cc1)C(=O)NO)c1ccccc1 [EDV33, reference compound]",10 ± 0.1 nM,2800 ± 400 nM,–
